Patent publication US20220031596A1, “ANTI-AGING AGENT AND ANTI-AGING METHOD” (priority 2018, published 2022)

Tests used:
[1] = system: growth hormone concentration in the plasma; test: Evaluation of growth hormone secretion promoting effect (plasma growth hormone, 24-week oral ingestion); assay type: in vivo, human; conditions: for growth hormone concentration in the plasma, 0 weeks (before ingestion) / growth hormone concentration in the plasma, 24 weeks (after ingestion) / growth hormone concentration in the plasma, Change rate (24 weeks - 0 weeks): High Dose Group (200 mg/daily, oral), mean±SD; for growth hormone concentration in the plasma, 0 weeks (before ingestion): baseline
Description: In order to confirm a change in the growth hormone quantity before and after ingestion of the nicotinamide mononucleotide, a test was conducted on healthy males and females aged 50 to 70 years.
As a sample of Working Example 2, a capsule formulation containing the nicotinamide mononucleotide and starch (200 mg of the nicotinamide mononucleotide in 4 capsules) (manufactured by SHINKOWA PHARMACEUTICAL Co., Ltd.) was used.
(§1) Each group consisting of five healthy males and females aged 50 to 70 years in an unbiased age group ingested the above capsule formulation once a day by 4 capsules for 24 weeks (total 10 subjects, 200 mg/daily ingestion). In order to conduct appropriate evaluations, those who had been regularly using medical products for chronic diseases, those who had been consuming healthy foods that may affect clinical research, and those who were currently participating in other clinical researches or clinical trials or had participated in other clinical researches or clinical trials within the last three months were excluded from the subject for the evaluation. The capsule formulations were ingested at 10 am (between meals and fasting state) together with water or lukewarm water (oral administration).
Measurement of the growth hormone quantity in the plasma was conducted by requesting the measurement to an external public organization according to a usual method. FIGS. 4a to 4c indicate transitions of the growth hormone concentration (ng/ml) in the plasma for 24 weeks. FIG. 4a represents the transitions of the whole subjects; FIG. 4b represents the transitions of the male subjects; FIG. 4c represents the transitions of the female subjects. Further, FIGS. 5a to 5c indicate change rates (%) of the blood growth hormone concentration up to 24 weeks when the nicotinamide mononucleotide was orally administered to the subjects for 24 weeks. FIG. 5a represents the change rates of the whole subjects; FIG. 5b represents the change rates of the male subjects; FIG. 5c represents the change rates of the female subjects. Further, Table 2 indicates the numerical values of the growth hormone concentration (ng/ml) in the plasma before the ingestion of the nicotinamide mononucleotide (0 weeks) and after the ingestion of the nicotinamide mononucleotide (24 weeks). Note that the numerical values represent mean values±standard deviation.

[2] = system: parathyroid hormone concentration in the plasma; test: Evaluation of parathyroid hormone secretion promoting effect (plasma parathyroid hormone, 24-week oral ingestion); assay type: in vivo, human; conditions: for parathyroid hormone concentration in the plasma, 0 weeks (before ingestion): baseline; for parathyroid hormone concentration in the plasma, 0 weeks (before ingestion) / parathyroid hormone concentration in the plasma, 24 weeks (after ingestion) / parathyroid hormone concentration in the plasma, Change rate (24 weeks - 0 weeks): mean±SD
Description: In order to confirm a change in the parathyroid hormone quantity before and after ingestion of the nicotinamide mononucleotide, a test was conducted on healthy males and females aged 50 to 70 years.
As a sample of Working Example 6, a capsule formulation containing the nicotinamide mononucleotide and starch (100 mg (low dose) and 200 mg (high dose) of the nicotinamide mononucleotide in 4 capsules) (manufactured by SHINKOWA PHARMACEUTICAL Co., Ltd.) was used.
as §1, with “above low dose” for “above”, “subjects, a low dose group: 100 mg/daily ingestion). On the other hand, each group consisting of five healthy males and females aged 50 to 70 years in the unbiased age group ingested the above high dose capsule formulation once a day by 4 capsules for 24 weeks (total 10 subjects, a high dose group:” for “subjects,”
Measurement of the parathyroid hormone quantity in the plasma was conducted by requesting the measurement to an external public organization according to a usual method. FIGS. 12a to 12c indicate transitions of the parathyroid hormone concentration (pg/ml) in the plasma for 24 weeks. FIG. 12a represents the transitions of the whole subjects; FIG. 12b represents the transitions of the male subjects; FIG. 12c represents the transitions of the female subjects. Further, FIGS. 13a to 13c indicate change rates (%) of the blood parathyroid hormone concentration up to 24 weeks when the nicotinamide mononucleotide was orally administered to the subjects for 24 weeks. FIG. 13a represents the change rates of the whole subjects; FIG. 13b represents the change rates of the male subjects; FIG. 13c represents the change rates of the female subjects. Further, Table 6 indicates the numerical values of the parathyroid hormone concentration (pg/ml) in the plasma before the ingestion of the nicotinamide mononucleotide (0 weeks) and after the ingestion of the nicotinamide mononucleotide (24 weeks). Note that the numerical values represent mean values±standard deviation.

[3] = Female, High Dose Group (200 mg/daily, oral)
[4] = Female, Low Dose Group (100 mg/daily, oral)
[5] = Male, High Dose Group (200 mg/daily, oral)
[6] = Male, Low Dose Group (100 mg/daily, oral)
[7] = Whole Subjects, High Dose Group (200 mg/daily, oral)
[8] = Whole Subjects, Low Dose Group (100 mg/daily, oral)

NC(=O)c1ccc[n+]([C@@H]2O[C@H](COP(=O)([O-])O)[C@@H](O)[C@H]2O)c1 [nicotinamide mononucleotide]
growth hormone concentration in the plasma, 0 weeks (before ingestion) ([1]; Female): 0.91 ± 0.28 ng/mL
growth hormone concentration in the plasma, 24 weeks (after ingestion) ([1]; Female): 2.14 ± 2.22 ng/mL
growth hormone concentration in the plasma, Change rate (24 weeks - 0 weeks) ([1]; Female): 1.24 ± 2.31 ng/mL
growth hormone concentration in the plasma, 0 weeks (before ingestion) ([1]; Male): 0.21 ± 0.12 ng/mL
growth hormone concentration in the plasma, 24 weeks (after ingestion) ([1]; Male): 2.41 ± 3.44 ng/mL
growth hormone concentration in the plasma, Change rate (24 weeks - 0 weeks) ([1]; Male): 2.20 ± 3.34 ng/mL
growth hormone concentration in the plasma, 0 weeks (before ingestion) ([1]; Whole Subjects): 0.56 ± 0.42 ng/mL
growth hormone concentration in the plasma, 24 weeks (after ingestion) ([1]; Whole Subjects): 2.28 ± 2.73 ng/mL
growth hormone concentration in the plasma, Change rate (24 weeks - 0 weeks) ([1]; Whole Subjects): 1.72 ± 2.76 ng/mL
growth hormone concentrations in the plasma, effect of ingestion (in words) ([1]; oral, 200 mg/daily, 24 weeks, FIGS. 4a-4c, 5a-5c): increased
parathyroid hormone concentration in the plasma, 0 weeks (before ingestion) [2, 3]: 384 ± 88 pg/mL
parathyroid hormone concentration in the plasma, 24 weeks (after ingestion) [2, 3]: 448 ± 114 pg/mL
parathyroid hormone concentration in the plasma, Change rate (24 weeks - 0 weeks) [2, 3]: 64 ± 65 pg/mL
parathyroid hormone concentration in the plasma, 0 weeks (before ingestion) [2, 4]: 328 ± 45 pg/mL
parathyroid hormone concentration in the plasma, 24 weeks (after ingestion) [2, 4]: 394 ± 63 pg/mL
parathyroid hormone concentration in the plasma, Change rate (24 weeks - 0 weeks) [2, 4]: 66 ± 34 pg/mL
parathyroid hormone concentration in the plasma, 0 weeks (before ingestion) [2, 5]: 410 ± 108 pg/mL
parathyroid hormone concentration in the plasma, 24 weeks (after ingestion) [2, 5]: 438 ± 168 pg/mL
parathyroid hormone concentration in the plasma, Change rate (24 weeks - 0 weeks) [2, 5]: 28 ± 77 pg/mL
parathyroid hormone concentration in the plasma, 0 weeks (before ingestion) [2, 6]: 344 ± 69 pg/mL
parathyroid hormone concentration in the plasma, 24 weeks (after ingestion) [2, 6]: 386 ± 108 pg/mL
parathyroid hormone concentration in the plasma, Change rate (24 weeks - 0 weeks) [2, 6]: 42 ± 73 pg/mL
parathyroid hormone concentration in the plasma, 0 weeks (before ingestion) [2, 7]: 397 ± 94 pg/mL
parathyroid hormone concentration in the plasma, 24 weeks (after ingestion) [2, 7]: 443 ± 135 pg/mL
parathyroid hormone concentration in the plasma, Change rate (24 weeks - 0 weeks) [2, 7]: 46 ± 70 pg/mL
parathyroid hormone concentration in the plasma, 0 weeks (before ingestion) [2, 8]: 336 ± 56 pg/mL
parathyroid hormone concentration in the plasma, 24 weeks (after ingestion) [2, 8]: 390 ± 84 pg/mL
parathyroid hormone concentration in the plasma, Change rate (24 weeks - 0 weeks) [2, 8]: 54 ± 55 pg/mL
parathyroid hormone concentrations in the plasma, effect of ingestion (in words) ([2]; oral, 100 or 200 mg/daily, 24 weeks, FIGS. 12a-12c, 13a-13c): increased
